Data published in patent publication US20070261453A1, “Plant Nutrient Based on O,P-Ethylene(Bis)Hydroxyphenyl Glycines” (priority 2004, published 2007).

Tested on: Soybean (cv.Oshumi) plants
Assay: Soybean iron chlorosis experiment in aerated nutrient solution with Fe chelate treatments (plant weight, iron content, SPAD index)
Type: in vivo
Conditions: for Iron content in parts of the plants: leaf / Iron content in parts of the plants: per number of leaves / Iron content in parts of the plants: root: dry digestion and atomic absorption, sampled after 14 days; for Iron content in parts of the plants: leaf / Iron content in parts of the plants: per number of leaves / Iron content in parts of the plants: root / Dry leaf weight / Dry root weight / Fresh leaf weight / Fresh plant weight / Fresh root weight: mean of 4 replicates; for Dry leaf weight / Dry root weight / Fresh leaf weight / Fresh plant weight / Fresh root weight: iron-chlorotic soybean plants, sampled 14 days after start of Fe treatment; for Spad index (second leaf): Minolta SPAD 502, means of 4 replicates
Method: Soybean (cv.Oshumi) plants have been used in the biological experiment. Plants were obtained from soybean seeds that were germinated in standard seed growing procedure in closed sterilized trays. The seeds were placed in the trays on a cellulose paper soaked with 50 milliliters of distilled water and with another paper placed over them. 30 ml distilled water and 20 ml CaSO4 1 mM were added. The trays were placed in a thermostatized stove, without light, at […] for 3 days. After this time the seedlings of similar development were placed on a holed plate floating over containers full of diluted nutrient solution and EDTA for 7 days. Nutrient solutions (without iron) were a mixture of: macronutrients: 1 mM Ca(NO3)2·4H2O, 0.9 mM KNO3, 0.3 mM MgSO4, 0.1 mM KH2PO4; cationic micronutrients: 2.5 μM MnSO4, 1 μM CuSO4, 10 μM ZnSO4, 1 μM NiCl2, 1 μM CoSO4, 115.5 μM EDTANa2 (100 μM in excess to buffer micronutrients activities), 231 μM KOH; anionic micronutrients: 35 μM NaCl, 10 μM H3BO3, 0.05 μM Na2MoO4. The pH was buffered at 7.5 with 0.1 mM HEPES (N-2-Hydroxyethylpiperazine-N′-2-ethanesulfonic acid), 0.05mM KOH and 2 g of CaCO3 per pot. Later, plants were subjected to a stressing procedure that consisted in putting them in five pails that contained 10 | each one of nutrient solution without iron chelate. […] After 6 days, the stems of two plants were wrapped together with foam and placed in 2 | polyethylene vessels (3 holes per lid, 2 plants per pot). The pots were completely covered with black plastic to avoid the incidence of the light. The vessels contained 2 | of continuously aerated nutrient solution containing the Fe treatments. Nutrient solution consisted of macronutrients and anionic micronutrients as before and cationic micronutrients: MnSO4 (1 μM), CuSO4 (0.5 μM), ZnSO4 (0.5 μM), NiCl2 (0.1 μM) and CoSO4 (0.1 μM). Water was added every two days and the solution was renewed every week. Plants were sampled 14 days after. Roots and leaves were separated and washed first with Tween® 80 (polyoxyethylene sorbitan monooleate) in 0.1 M HCl for 30 seconds, and then with abundant distilled water, after that they were weighted and dried. Micronutrientes were determined in leaves and in roots after dry digestion procedure and atomic absorption. During the experiment SPAD readings were frequently taken using the Minolta SPAD 502 chlorophyll meter, for all the leaves.
Seven different treatments were applied: • Comparative Example 1: No iron added. • Comparative Example 2: Fe-o,o-EDDHA 5 μM • Comparative Example 3: Fe-o,o-EDDHA 5 μM+Fe-o,p-EDDHA 1 μM. • Comparative Example 4: Fe-o,o-EDDHA 5 μM+Fe-o,p-EDDHA 2.5 μM. • Comparative Example 5: Fe-o,o-EDDHA 10 μM • Example 1: Fe-o,p-EDDHA 5 μM. • Example 2: Fe-o,o-EDDHA 5 μM+Fe-o,p-EDDHA 5 μM.
Four replications were prepared for each treatment.

[1] = listed as Comparative Example 2

## O=C([O-])C(NCCNC(C(=O)[O-])c1ccccc1[O-])c1ccccc1[O-].[Fe+3] (single isomer, unassigned) [Comp. Example 2, Fe-o,o-EDDHA]
[1]
  Iron content in parts of the plants: leaf: 62.30 μg Fe/g dry leave
  Iron content in parts of the plants: per number of leaves: 19.82 μg Fe/number of leaves
  Iron content in parts of the plants: root: 90.32 μg Fe/g dry root
  Dry leaf weight: 0.321 g
  Dry root weight: 0.282 g
  Fresh leaf weight: 1.257 g
  Fresh plant weight: 6.781 g
  Fresh root weight: 3.818 g
Time 0 days, listed as C2
  Spad index (second leaf): 12.7
Time 2 days, listed as C2
  Spad index (second leaf): 10.1
Time 4 days, listed as C2
  Spad index (second leaf): 9.1
Time 7 days, listed as C2
  Spad index (second leaf): 9.5
Time 9 days, listed as C2
  Spad index (second leaf): 9.2
Time 11 days, listed as C2
  Spad index (second leaf): 8.2

## O=C([O-])C(NCCNC(C(=O)[O-])c1ccccc1[O-])c1ccccc1[O-].[Fe+3] (single isomer, unassigned) [Comp. Example 5, Fe-o,o-EDDHA]
  Iron content in parts of the plants: leaf: 74.87 μg Fe/g dry leave
  Iron content in parts of the plants: per number of leaves: 55.15 μg Fe/number of leaves
  Iron content in parts of the plants: root: 77.22 μg Fe/g dry root
  Dry leaf weight: 0.781 g
  Dry root weight: 0.425 g
  Fresh leaf weight: 4.736 g
  Fresh plant weight: 15.862 g
  Fresh root weight: 7.316 g
Time 0 days
  Spad index (second leaf): 16.6
Time 2 days
  Spad index (second leaf): 15.7
Time 4 days
  Spad index (second leaf): 15.0
Time 7 days
  Spad index (second leaf): 18.2
Time 9 days
  Spad index (second leaf): 19.7
Time 11 days
  Spad index (second leaf): 19.0

## O=C([O-])C(NCCNC(C(=O)[O-])c1ccccc1[O-])c1ccc(O)cc1.[Fe+3] (stereo not drawn) [Example 1, Fe-o,p-EDDHA]
Example 1 vs Comparative Examples 1 to 3, Example 2 vs Comparative Examples 4 and 5
  Course of SPAD values compared with Comparative Examples (in words): raise considerably steeper
Example 1 vs Comparative Examples 1 to 3, Example 2 vs Comparative Examples 4 and 5, Table 3
  Weight of the plants compared with Comparative Examples (in words): considerable raise of weight of the plants
Example 1 vs Comparative Examples 1 to 3, Example 2 vs Comparative Examples 4 and 5, Table 4
  Iron content in parts of the plants compared with Comparative Examples (in words): increase in the iron content
  Iron content in parts of the plants: leaf: 80.98 μg Fe/g dry leave
  Iron content in parts of the plants: per number of leaves: 91.91 μg Fe/number of leaves
  Iron content in parts of the plants: root: 128.48 μg Fe/g dry root
  Dry leaf weight: 1.136 g
  Dry root weight: 0.595 g
  Fresh leaf weight: 6.282 g
  Fresh plant weight: 21.186 g
  Fresh root weight: 8.933 g
Time 0 days
  Spad index (second leaf): 14.7
Time 2 days
  Spad index (second leaf): 14.0
Time 4 days
  Spad index (second leaf): 18.0
Time 7 days
  Spad index (second leaf): 21.4
Time 9 days
  Spad index (second leaf): 13.9
Time 11 days
  Spad index (second leaf): 24.9
